Results from patent US11964935B2, “Gingerol derivative having inhibitory activity against biofilm formation and pharmaceutical composition comprising same as effective ingredient for preventing or treating biofilm-caused infection symptom” (Korea University Research and Business Foundation, Sejong …, priority 2017, dated 2024).
“Also recorded” adds a separate entry of the source.

Columns and labels:
[1] = system: P. aeruginosa PA14; test: Static biofilm formation assay; assay type: cell-based, Pseudomonas aeruginosa; details: 10 μM, 24 h, static
Experimental: Overnight culture of P. aeruginosa PA14 (OD595=1.0) was diluted (1:20) with the AB medium (300 mM NaCl, 50 mM MgSO4, 0.2% vitamin-free casamino acids, 10 mM potassium phosphate, 1 mM L-arginine, and 1% glucose, pH 7.5) (1:20) containing with either positive controls or synthesized compounds (0-100 μM). The dilutions were aliquoted into borosilicate bottles, and the bottles were incubated at 37° C. for 24 h without agitation. After that, OD595 of the cell suspension was measured on the VICTOR ×5 multimode plate reader. The biofilm cells attached to the bottle were washed two times with phosphate buffered saline (PBS; 137 mM NaCl, 2.7 mM KCl, 10 mM Na2HPO4, and 2 mM KH2PO4, pH 7.2) and stained with 0.1% crystal violet for […] Next, the stained biofilm cells were eluted with 100% ethyl alcohol, and OD540 was measured on the VICTOR ×5 multimode plate reader. The biofilm formation was quantified by dividing OD540 with OD595.

[2] = target: T1, LasR (Pseudomonas aeruginosa, UniProt P25084); test: LasR reporter gene assay (E. coli reporter strain, luminescence, competition with OdDHL); assay type: cell-based; details: compound 1 μM or 10 μM in the presence of 1 μM OdDHL (compound 1a)
T1 construct: expressed in transfected cells; host or cells: E. coli DH5α (printed DHSα) co-transformed with pJN105L and pSC11
Experimental: This assay was conducted by modifying a previously reported method. E. coli DHSα co-transformed with two plasmids, pJN105L (LasR expression plasmid) and pSC11 (lasI::lacZ fusion plasmid), was used as a bioassay reporter strain. Overnight culture of the reporter strain with 10 μg/mL gentamicin and 50 μg/mL ampicillin was diluted in the Luria-Bertani (LB) medium (1:100). Then, the reporter strain (optical density at 595 nm [OD595] was 0.3) mixed with either a positive control or the synthesized compound was incubated with OdDHL (Sigma-Aldrich, St. Louis, MO., USA) and 0.4% arabinose (Sigma-Aldrich). After incubation at 37° C. for 1.5 h, OD595 was measured on a VICTOR ×5 multimode plate reader (PerkinElmer, Waltham, Mass., USA). The β-galactosidase activity was determined using a Tropix plus kit (Applied Biosystems, USA), and luminescence was measured on the VICTOR ×5 multimode plate reader. RLU ratio was quantified by dividing luminescence with OD595.
LasR-binding affinity of the synthesized gingerols (compounds 4-10) with various alkyl chain lengths was determined by measuring luminescence of an E. coli reporter strain. The reporter strain carried two plasmids, pJN105L (LasR expression plasmid) (Lee, J. H.; Lequette, Y.; Greenberg, E. P. Activity of purified QscR, a Pseudomonas aeruginosa orphan quorum-sensing transcription factor. Mol. Microbiol. 2006, 59, 602609.) and pSC11 (las1::lacZ fusion plasmid) (Chugani, S. A.; Whiteley, M.; Lee, K. M.; D'Argenio, D.; Manoil, C.; Greenberg, E. P. QscR, a modulator of quorum-sensing signal synthesis and virulence in Pseudomonas aeruginosa. Proc. Natl. Acad. Sci. U.S.A. 2001, 98, 27522757.), which enabled assay of competitive binding of OdDHL with each gingerol derivative 4-10. Antagonistic activities of the synthesized compounds at 1 μM or 10 μM were determined by measuring luminescence in the presence of 1 μM OdDHL (compound 1a) and presented as relative luminescence unit (RLU) ratio. Three compounds (compounds 1b, 1c, and 1d) served as positive controls. […] Just as the LasR inhibition, inhibition of biofilm formation also strengthened as the carbon chain was extended at 10 μM ((B) of FIG. 3). However, inhibition of biofilm formation decreased with 9-gingerol (compound 9) and 10-gingerol (compound 10) at 100 μM ((C) of FIG. 3) because of increased bacterial growth inhibition. […] This effect may be due to the fact that compounds 9 and 10 act as a surfactant, which inhibits bacterial growth. Agonistic activities of compounds 4-10 in an E. coli reporter assay system in the absence of OdDHL were next examined.

T1 sequence (P25084 whole entry): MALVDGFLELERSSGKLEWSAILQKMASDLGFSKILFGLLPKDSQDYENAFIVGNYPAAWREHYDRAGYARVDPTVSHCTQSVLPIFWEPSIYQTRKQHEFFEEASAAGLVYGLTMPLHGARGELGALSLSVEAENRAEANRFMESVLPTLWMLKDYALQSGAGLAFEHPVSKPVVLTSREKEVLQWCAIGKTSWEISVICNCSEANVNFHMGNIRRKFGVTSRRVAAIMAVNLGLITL

SMILES | Inhibition of biofilm formation, in words [1] | LasR-antagonistic activity / LasR-binding affinity (RLU ratio), in words [2]
CCCCCCCC(=O)/C=C/c1ccc(O)c(OC)c1 [Compound 23a, (E)-1-(4-Hydroxy-3-methoxyphenyl)dec-1-en-3-one] | less inhibition of biofilm formation | significantly weaker LasR-binding affinity
CCCCCC(O)CC(=O)CCc1ccc(F)cc1 (centres unmarked) [Compound 17a, 1-(4-Fluorophenyl)-5-hydroxydecan-3-one] | the most potent in the series | preserved the LasR-inhibitory activity
CCCCCCCC(O)CC(=O)/C=C/c1ccc(O)c(OC)c1 (racemic) [Compound 21b, (E)-5-Hydroxy-1-(4-hydroxy-3-methoxyphenyl)dodec-1-en-3-one] |  | slightly stronger LasR affinity; also recorded: more potent than compound 1c
CCCCCC(O)CC(=O)CCc1ccccc1 (centres unmarked) [Compound 15a, 5-Hydroxy-1-phenyldecan-3-one] |  | significantly decreased the LasR-antagonistic activity
CCCCCCCCCC(=O)CCc1ccc(O)c(OC)c1 [Compound 24b, 1-(4-Hydroxy-3-methoxyphenyl)dodecan-3-one] | less inhibition of biofilm formation | significantly weaker LasR-binding affinity
CCCCCCCC(O)CC(=O)CCc1ccc(F)c(OC)c1 (centres unmarked) [Compound 16b, 1-(4-Fluoro-3-methoxyphenyl)-5-hydroxydodecan-3-one] | the most potent in the series; also recorded: stronger inhibition of biofilm formation than the known anti-biofilm agent (S)-6-gingerol | 
CCCCCCC[C@@H](O)CC(=O)CCc1ccc(O)c(OC)c1 [Compound 29, (R)-5-Hydroxy-1-(4-hydroxy-3-methoxyphenyl)dodecan-3-one] |  | intermediate LasR-affinity between compound 8 and compound 42
CCCCCCCC(O)CC(=O)CCc1ccccc1 (centres unmarked) [Compound 15b, 5-Hydroxy-1-phenyldodecan-3-one] |  | relatively weaker than those of the other compounds
CCCCCCCC(=O)CCc1ccc(O)c(OC)c1 [Compound 24a, 1-(4-Hydroxy-3-methoxyphenyl)decan-3-one] | less inhibition of biofilm formation | significantly weaker LasR-binding affinity
CCCCCC(O)CC(=O)/C=C/c1ccc(O)c(OC)c1 (centres unmarked) [Compound 21a, (E)-5-Hydroxy-1-(4-hydroxy-3-methoxyphenyl)dec-1-en-3-one] |  | slightly stronger LasR affinity
CCCCCC(O)CC(=O)CCc1ccc(O)c(OC)c1 (racemic) [Compound 6, 5-Hydroxy-1-(4-hydroxy-3-methoxyphenyl)decan-3-one] |  | slightly more potent
CCCCCC(O)CC(=O)CCc1ccc(O)cc1 (centres unmarked) [Compound 18a, 5-Hydroxy-1-(4-hydroxyphenyl)decan-3-one] | the most potent in the series | increased the LasR-antagonistic activity
CCCCCC(O)CC(=O)CCc1cccc(OC)c1 (centres unmarked) [Compound 20a, 5-Hydroxy-1-(3-methoxyphenyl)decan-3-one] |  | decreased the LasR-antagonistic activity
CCCCCCCC(O)CC(=O)CCc1ccc(F)cc1 (centres unmarked) [Compound 17b, 1-(4-Fluorophenyl)-5-hydroxydodecan-3-one] | the most potent in the series; also recorded: stronger inhibition of biofilm formation than the known anti-biofilm agent (S)-6-gingerol | the most potent among the synthesized compounds
CCCCCCCC(O)CC(=O)CCc1ccc(O)c(OC)c1 (racemic) [Compound 8, 5-Hydroxy-1-(4-hydroxy-3-methoxyphenyl)dodecan-3-one] |  | slightly more potent
CCCCCC(O)CC(=O)CCc1ccc(F)c(OC)c1 (centres unmarked) [Compound 16a, 1-(4-Fluoro-3-methoxyphenyl)-5-hydroxydecan-3-one] | the most potent in the series | preserved the LasR-inhibitory activity
CCCCCCCC(O)CC(=O)CCc1cccc(OC)c1 (centres unmarked) [Compound 20b, 5-Hydroxy-1-(3-methoxyphenyl)dodecan-3-one] |  | relatively weaker than those of the other compounds
CCCCCCCC(O)CC(=O)CCc1ccc(O)c(OC)c1 [Compound 42S, (S)-8-gingerol] |  | almost the same as that of commercial (S)-8-gingerol
CCCCCCCCCC(=O)/C=C/c1ccc(O)c(OC)c1 [Compound 23b, (E)-1-(4-Hydroxy-3-methoxyphenyl)dodec-1-en-3-one] | less inhibition of biofilm formation | significantly weaker LasR-binding affinity
CCCCCCCC(O)CC(=O)CCc1ccc(O)cc1 (centres unmarked) [Compound 18b, 5-Hydroxy-1-(4-hydroxyphenyl)dodecan-3-one] | the most potent in the series; also recorded: stronger inhibition of biofilm formation than the known anti-biofilm agent (S)-6-gingerol | the most potent among the synthesized compounds
